In patent publication US8445677B2, “Substituted pyrimidyl guanidine derivatives having anticancer activity” (University of Southern California, priority 2008, dated 2013):

Legend:
[1] = tested on: HCT116 p53+/+; experiment: MTT cytotoxicity assay (Example 2); format: cell-based
From the text: (§1) Human breast cancer cell lines MDA-MB-435 and SkBr-3 were purchased from the American Type Culture Collection (Manassas, Va.). The HCT116 P53+/+ and HCT116 P53−/− cell lines were kindly provided by Dr. Bert Vogelstein (Johns Hopkins Medical Institutions, Baltimore, Md.). The HEY human ovarian carcinoma cell line was kindly provided by Dr. Louis Dubeau (University of Southern California Norris Cancer Center). Cells were maintained as monolayer cultures in media supplemented with 10% fetal bovine serum (Gemini-Bioproducts, Woodland, Calif.) and 2 mmo/lL-glutamine at 37° C. in a humidified atmosphere of 5% C02. To remove the adherent cells from the flask for passaging and counting, cells were washed with PBS without calcium or magnesium, incubated with a small volume of 0.25% trypsin-EDTA solution (Sigma-Aldrich, St. Louis, Mo.) for 5-10 min, and washed with culture medium and centrifuged. All experiments were performed using cells in exponential growth stage. Cells were routinely checked for mycoplasma contamination using a PCR-based assay (Stratagene, Cambridge, UK).
(§2) Stock solutions (10 mM) of all compounds were prepared in DMSO and stored at −20° C. Further dilutions were made fresh in cell-culture media just prior to cell treatment.
(§3) Cytotoxicity was assessed by a 3-(4,5-dimethylthiazol-2-yl)-2,5-diphenyltetrazolium bromide (MTT) assay as previously described.^23 Cells were seeded in 96-well plates and allowed to attach overnight. Cells were subsequently treated with continuous exposure to the corresponding drug for 72 h. An MTT solution (at a final concentration of 0.5 mg/ml) was added to each well, and cells were incubated for 4 h at 37° C. After removal of the medium, DMSO was added and the absorbance was read at 570 nm. All assays were performed in triplicate. The IC50 was determined for each drug from a plot of log (drug concentration) versus percentage of cells killed.

[2] = tested on: HCT116 p53−/−; experiment: MTT cytotoxicity assay (Example 2); format: cell-based
From the text: as §1, §2, §3

[3] = tested on: MDA-MB-435; experiment: MTT cytotoxicity assay (Example 2); format: cell-based; conditions: Homo sapiens, MDA-MB-435, 72 h
From the text: as §1, §2, §3

[4] = tested on: HEY; experiment: MTT cytotoxicity assay (Example 2); format: cell-based, human; conditions: 72 h
From the text: as §1, §2, §3

[5] = tested on: SkBr-3; experiment: MTT cytotoxicity assay (Example 2); format: cell-based, human
From the text: as §1, §2, §3

[6] = tested on: panel of cancer cell lines; experiment: MTT cytotoxicity, panel of cancer cell lines (Example 2); format: cell-based
From the text: as §1, §2, §3

[7] = tested on: HCT116 p53+/+; experiment: MTT cytotoxicity assay (Example 1); format: cell-based; conditions: MTT, 72 h
From the text: (§4) Human breast cancer cells MDA-MB-435 were purchased from the American Type Culture Collection (Manassas, Va.). The HCT116 p53+/+ and HCT116 p53−/− cells were kindly provided by Dr. Bert Vogelstein (Johns Hopkins Medical Institutions, Baltimore, Md.). The human ovarian carcinoma cell line (HEY) which is naturally resistant to cisplatin, was kindly provided by Dr. Louis Dubeau, University of Southern California (USC) Norris Cancer Center, and NIH3T3 normal mouse fibroblast cells were kindly provided by Dr. Michael Press from USC. HEY and NIH3T3 cells were maintained as monolayer cultures in RPMI, HCT 116 cells in McCoy1s5A media and MDA-MB 435 in DMEM. Media were purchased from (Mediatech, Virginia) and supplemented with 10% fetal bovine serum (Gemini-Bioproducts, Woodland, Calif.), 2 mM L-glutamine and 5% Penicillin/streptomycin from Bio whittaker were purchased from VWR. Cells were incubated at 37° C. in a humidified atmosphere of 5% CO2. To remove the adherent cells from the flask for passaging and counting, cells were washed with PBS without calcium or magnesium, incubated with a small volume of 0.25% trypsin-EDTA solution (Sigma-Aldrich, St. Louis, Mo.) for 5-10 min, and washed with culture medium and centrifuged. All experiments were performed using cells at exponential growth stage. Cells were routinely checked for mycoplasma contamination using a PCR-based assay (Stratagene, Tex., USA).
(§5) Stock solutions (10 mM) of all compounds were prepared in DMSO and stored at −20° C. Further dilutions were made fresh in PBS or cell-culture media right before cell treatment.
(§6) Cytotoxicity was assessed by a 3-(4,s-dimethylthiazol-2-yl)-2,5-diphenyltetrazolium bromide (MTT) assay as previously described.^24 Briefly, cells were seeded in 96-well microtiter plates and allowed to attach overnight. Cells were subsequently treated with continuous exposure to the corresponding drug for 72 h. A MTT solution (at a final concentration of 0.5 mglml) was added to each well, and cells were incubated for 4 h at 37° C. After removal of the medium, DMSO was added and the absorbance was read at 570 nm. All assays were done in triplicate. The IC50 was then determined for each drug from a plot of log (drug concentration) versus percentage of cells killed.

[8] = tested on: HCT116 p53−/−; experiment: MTT cytotoxicity assay (Example 1); format: cell-based; conditions: MTT, 72 h
From the text: as §4, §5, §6

[9] = tested on: NIH3T3; experiment: MTT cytotoxicity assay (Example 1); format: cell-based, mouse
From the text: as §4, §5, §6

[10] = tested on: HCT p53+/+ cells; experiment: Colony formation assay; format: cell-based; conditions: several doses
Description: (§7) Colony formation assays were also performed to confirm the activity of these compounds as described.^1,25 Briefly, cells were plated in 6-well plates at a density of 500 cells/well and allowed to attach. The next day, serial dilutions of the corresponding compounds were added and allowed to incubate for 24 h. After exposure, cells were washed in PBS and cultured in drug-free media until colonies were formed (8-10 days). Cells were subsequently washed, fixed with a 1% glutaraldehyde solution for 30 min, and stained with a solution of crystal violet (2%) for 30 min. After staining, cells were thoroughly washed with water. Colonies were imaged on the ChemiDoc Imaging System (Bio-Rad) and counted using the Quantity One quantitation software package (Bio-Rad). The data reported represent means of at least three independent experiments.

[11] = tested on: HEY cells; experiment: Colony formation assay; format: cell-based, human; conditions: several doses
Description: as §7

[12] = MTT, 72 h, read-out: IC50 Hct116 p53+/+
[13] = Homo sapiens, HCT-116, 72 h, MTT, 72 h, read-out: IC50 Hct116 p53+/+
[14] = Homo sapiens, HCT-116, p53+/+ cell line, read-out: IC50

Structure (SMILES)	IC50 ([2]; Homo sapiens, HCT-116, 72 h) [nM]	IC50 [3] [nM]	IC50 ([5]; Homo sapiens, SK-BR-3, 72 h) [nM]	IC50 [1, 13] [nM]	IC50 ([4]; Homo sapiens) [nM]	other results
Cc1cc(C)nc(NC(=N)Nc2cc(Oc3ccccc3)ccc2Cl)n1 [1-SMD6]	1500 ± 100	8000 ± 500	< 10000	–	–	IC50 [1, 12]: 1000 ± 700 nM; IC50 [4]: 3500 ± 1600 nM; IC50 ([5]; 72 h): 5000 ± 1000 nM
Cc1cc(C)nc(NC(=N)Nc2ccc(Cl)cc2C(=O)c2ccccc2)n1 [2-SMD6-4]	2100 ± 100	> 10000	7400 ± 500	2200 ± 800	2500 ± 400	IC50 ([6]; certain cancer cell lines): < 3000 nM
CCCOc1ccc(NC(=N)Nc2nc(C)cc(C)n2)cc1 [3-SMD6-5]	8100 ± 600	> 10000	> 10000	> 10000	> 10000	–
Cc1cc(C)nc(NC(=N)Nc2ccc(Cl)c(C(F)(F)F)c2)n1 [4-SMD6-8]	2100 ± 500	–	2500 ± 500	1600 ± 400	2200 ± 300	IC50 ([6]; certain cancer cell lines): < 3000 nM
COC(=O)/C=C1/N=C(Nc2nc3ccccc3s2)NC1=O [5-SMD18]	6500	7000 ± 1100	–	< 10000	< 10000	IC50 [1, 12]: 7200 ± 100 nM; IC50 [4]: 7200 ± 200 nM; IC50 ([5]; 72 h): 2500 ± 800 nM
CCOC(=O)Cc1cc(=O)nc(Nc2nc3ccccc3s2)[nH]1 [6-SMD18-1]	4000 ± 2000	9500	> 10000	3400 ± 200	–	–
Cc1[nH]c(Nc2nc3ccccc3s2)nc(=O)c1Cc1ccccc1 [7-SMD18-8]	> 10000	> 10000	> 10000	10000	–	IC50 [1, 12]: > 10000 nM; IC50 ([2]; 72 h): 7200 nM
CC(C)c1cc(=O)[nH]c(Nc2nc3ccccc3s2)n1 [8-SMD18-14]	3600 ± 1800	> 10000	> 10000	4500 ± 1500	–	–
CC(C)(C)c1cc(=O)[nH]c(Nc2nc3ccccc3s2)n1 [9-SMD18-15-BAS 125346 60]	9900	7500	> 10000	9900	–	–
CCOC(=O)C1CCN(Cc2ccc(O)c3ncccc23)CC1 [10-SMD58]	300	2400 ± 1500	–	–	–	IC50 [1, 14]: < 1000 nM; IC50 [4]: 500 nM; IC50 ([5]; 72 h): 3500 ± 500 nM; IC50 ([6]; five cancer cell lines): < 3500 nM
Oc1ccc(Cc2ccc(O)c3ncccc23)c2cccnc12 [11-SMD58-1]	250 ± 500	2800 ± 1700	1400 ± 800	450	100	IC50 [1, 14]: < 1000 nM
CCOC(=O)C1CCCN(Cc2ccc(O)c3ncccc23)C1 (stereo not shown) [12-SMD58]	2000 ± 100	4200 ± 1200	2200 ± 900	1600 ± 400	900	–
CCOC(=O)N1CCN(Cc2ccc(O)c3ncccc23)CC1 [13-SMD58-5]	1000 ± 100	5300 ± 100	3700 ± 500	2100 ± 200	1900	–
CN1CCN(Cc2ccc(O)c3ncccc23)CC1 [14-SMD58-7]	1700 ± 200	3900 ± 100	3200 ± 100	700 ± 400	400	–
Oc1ccc(CN2CCN(Cc3ccccc3)CC2)c2cccnc12 [15-SMD58-8]	2500 ± 1600	5400 ± 700	1700 ± 700	1700 ± 700	1800 ± 700	–
CCOc1ccc(NCc2ccc(O)c3ncccc23)cc1 [16-SMD58-11]	1200 ± 200	4900 ± 1100	3000 ± 1300	2300 ± 100	1700 ± 100	–
Cc1cccc(NCc2ccc(O)c3ncccc23)c1 [17-SMD58-12]	1900 ± 400	6600	4000 ± 500	1800 ± 400	1500 ± 800	–
Oc1ccc(CNc2ccc(C(F)(F)F)cc2)c2cccnc12 [18-SMD58-13]	2000 ± 100	5200 ± 400	2800 ± 500	1600 ± 100	1200 ± 100	–
COc1cccc(NCc2ccc(O)c3ncccc23)c1 [19-SMD58-14]	2100 ± 100	5000 ± 900	2900 ± 300	1300 ± 900	1900	–
Oc1ccc(CN2CCCCC2)c2cccnc12 [20-SMD58-18]	6500 ± 800	8900	8600 ± 1400	6800 ± 1300	5000 ± 1600	–
Oc1ccc(CN2CCN(c3ccccn3)CC2)c2cccnc12 [21-SMD58-19]	2200 ± 100	2700	3000 ± 1000	2600 ± 700	2800 ± 600	–
CCN1CCN(Cc2ccc(O)c3ncccc23)CC1 [22-SMD58-20]	2100 ± 1200	7200 ± 400	4100 ± 100	2100	1400 ± 200	–
Cc1cccnc1NCc1ccc(O)c2ncccc12 [23-SMD58-22]	1500 ± 100	3100 ± 600	3300 ± 700	1400 ± 400	2800	–
Cc1cccc(NCc2ccc(O)c3ncccc23)n1 [24-SMD58-23]	1600 ± 300	2300	3600 ± 500	2800 ± 100	2300 ± 300	–
CCC(=O)NC(c1ccc(OC)cc1)c1cc([N+](=O)[O-])c2cccnc2c1O (stereo not shown) [25-SMD58-26]	7100 ± 1100	7500	> 10000	6800 ± 200	3200	–
CCC(=O)NC(c1cccs1)c1cc([N+](=O)[O-])c2cccnc2c1O (stereo not shown) [26-SMD58-27]	4200 ± 1200	5600	4600 ± 800	5000 ± 400	3200 ± 800	–
Oc1ccc(Br)cc1/C=N/Nc1nc2nonc2nc1Nc1ccc(F)cc1 [Compound 2]	–	–	–	–	–	IC50 ([7]; Homo sapiens, HCT-116, 72 h): < 3000 nM; IC50 [7]: 1500 ± 1000 nM; IC50 ([8]; Homo sapiens, HCT-116, 72 h): < 3000 nM; IC50 [8]: 1800 ± 700 nM; IC50 ([9]; 72 h): 6000 ± 1400 nM; IC50 ([9]; Mus musculus, NIH3T3, 72 h): 8000 nM; toxic effect in colony formation assay [10]: significant toxic effect; toxic effect in colony formation assay [11]: significant toxic effect
